Reference: the NIST ThermoML archive (doi:10.1021/je8001305)

Assay: xn = mol fraction of the nth substance listed
Conditions: Liquid, Vibrating tube method

CC(C)O [propan-2-ol] + O
Conditions | mass density [kg/m3]
325.1 K, 4598.7 kPa, x1 = 0.2483 | 877.08
325.1 K, 5089.3 kPa, x1 = 0.2483 | 877.36
325.1 K, 5564.2 kPa, x1 = 0.2483 | 877.68
325.1 K, 5954.2 kPa, x1 = 0.2483 | 877.93
325.1 K, 6394.3 kPa, x1 = 0.2483 | 878.21
325.1 K, 6808.5 kPa, x1 = 0.2483 | 878.48
325.1 K, 7288 kPa, x1 = 0.2483 | 878.8
325.1 K, 7782.7 kPa, x1 = 0.2483 | 879.08
325.1 K, 8079.1 kPa, x1 = 0.2483 | 879.34
325.1 K, 8438.9 kPa, x1 = 0.2483 | 879.63
325.1 K, 8828.5 kPa, x1 = 0.2483 | 879.87
325.1 K, 9358.9 kPa, x1 = 0.2483 | 880.18
325.13 K, 29.2 kPa, x1 = 0.7258 | 782.68
325.13 K, 83 kPa, x1 = 0.7258 | 782.69
325.13 K, 268.1 kPa, x1 = 0.7258 | 782.93
325.13 K, 528.3 kPa, x1 = 0.7258 | 783.18
325.13 K, 873.7 kPa, x1 = 0.7258 | 783.5
325.13 K, 1298.6 kPa, x1 = 0.7258 | 783.92
325.13 K, 1709.2 kPa, x1 = 0.7258 | 784.33
325.13 K, 2200.7 kPa, x1 = 0.7258 | 784.79
325.13 K, 2652.1 kPa, x1 = 0.7258 | 785.22
325.13 K, 3101.7 kPa, x1 = 0.7258 | 785.67
325.13 K, 3550.6 kPa, x1 = 0.7258 | 786.11
325.13 K, 4068.3 kPa, x1 = 0.7258 | 786.61
325.13 K, 4579.4 kPa, x1 = 0.7258 | 787.07
325.13 K, 5021.7 kPa, x1 = 0.7258 | 787.49
325.13 K, 5496.1 kPa, x1 = 0.7258 | 787.93
325.13 K, 5972.3 kPa, x1 = 0.7258 | 788.38
325.13 K, 6450.8 kPa, x1 = 0.7258 | 788.82
325.13 K, 6903 kPa, x1 = 0.7258 | 789.24
325.13 K, 7392 kPa, x1 = 0.7258 | 789.7
325.13 K, 7861.1 kPa, x1 = 0.7258 | 790.11
325.13 K, 8322.8 kPa, x1 = 0.7258 | 790.52
325.13 K, 8813.9 kPa, x1 = 0.7258 | 790.98
325.13 K, 9287.4 kPa, x1 = 0.7258 | 791.41
325.13 K, 9829.7 kPa, x1 = 0.7258 | 791.93
350.15 K, 88 kPa, x1 = 0.4939 | 789.82
350.15 K, 161.7 kPa, x1 = 0.4939 | 789.8
350.15 K, 387.8 kPa, x1 = 0.4939 | 790.1
350.15 K, 695.2 kPa, x1 = 0.4939 | 790.45
350.15 K, 1020.8 kPa, x1 = 0.4939 | 790.78
350.15 K, 1400.1 kPa, x1 = 0.4939 | 791.25
350.15 K, 1795.8 kPa, x1 = 0.4939 | 791.61
350.15 K, 2147.1 kPa, x1 = 0.4939 | 791.96
350.15 K, 2497.9 kPa, x1 = 0.4939 | 792.31
350.15 K, 2892.7 kPa, x1 = 0.4939 | 792.74
350.15 K, 3277.9 kPa, x1 = 0.4939 | 793.12
350.15 K, 3611.5 kPa, x1 = 0.4939 | 793.5
350.15 K, 4087.3 kPa, x1 = 0.4939 | 794.01
350.15 K, 4606.7 kPa, x1 = 0.4939 | 794.49
350.15 K, 4955.2 kPa, x1 = 0.4939 | 794.83
350.15 K, 5376 kPa, x1 = 0.4939 | 795.26
350.15 K, 5837.6 kPa, x1 = 0.4939 | 795.69
350.15 K, 6296.4 kPa, x1 = 0.4939 | 796.18
350.15 K, 6886.6 kPa, x1 = 0.4939 | 796.77
350.15 K, 7400.8 kPa, x1 = 0.4939 | 797.28
350.15 K, 7935.6 kPa, x1 = 0.4939 | 797.73
350.15 K, 8400.3 kPa, x1 = 0.4939 | 798.24
350.15 K, 9000.6 kPa, x1 = 0.4939 | 798.68
350.15 K, 9521.2 kPa, x1 = 0.4939 | 799.18
350.18 K, 84.4 kPa, x1 = 0.2483 | 850.19
350.18 K, 220 kPa, x1 = 0.2483 | 850.33
350.18 K, 511 kPa, x1 = 0.2483 | 850.54
350.18 K, 938.8 kPa, x1 = 0.2483 | 850.91
350.18 K, 1369.7 kPa, x1 = 0.2483 | 851.29
350.18 K, 2066.9 kPa, x1 = 0.2483 | 851.75
350.18 K, 2381 kPa, x1 = 0.2483 | 852.09
350.18 K, 2718.1 kPa, x1 = 0.2483 | 852.39
350.18 K, 3107.7 kPa, x1 = 0.2483 | 852.73
350.18 K, 3464.8 kPa, x1 = 0.2483 | 853.04
350.18 K, 3957.6 kPa, x1 = 0.2483 | 853.37
350.18 K, 4346 kPa, x1 = 0.2483 | 853.71
350.18 K, 4781.1 kPa, x1 = 0.2483 | 854.06
350.18 K, 5267.8 kPa, x1 = 0.2483 | 854.49
350.18 K, 5743.8 kPa, x1 = 0.2483 | 854.83
350.18 K, 6196.4 kPa, x1 = 0.2483 | 855.2
350.18 K, 6734.2 kPa, x1 = 0.2483 | 855.63
350.18 K, 7374.9 kPa, x1 = 0.2483 | 856.07
350.18 K, 7999 kPa, x1 = 0.2483 | 856.54
350.18 K, 8630.3 kPa, x1 = 0.2483 | 857.02
350.18 K, 9298.3 kPa, x1 = 0.2483 | 857.54
351.14 K, 93.2 kPa, x1 = 0.7258 | 756.9
351.14 K, 241.5 kPa, x1 = 0.7258 | 757.15
351.14 K, 444.5 kPa, x1 = 0.7258 | 757.34
351.14 K, 822.4 kPa, x1 = 0.7258 | 757.8
351.14 K, 1271.6 kPa, x1 = 0.7258 | 758.33
351.14 K, 1673.9 kPa, x1 = 0.7258 | 758.75
351.14 K, 2070.5 kPa, x1 = 0.7258 | 759.26
351.14 K, 2461.1 kPa, x1 = 0.7258 | 759.66
351.14 K, 2863.4 kPa, x1 = 0.7258 | 760.12
351.14 K, 3280.9 kPa, x1 = 0.7258 | 760.61
351.14 K, 4252.5 kPa, x1 = 0.7258 | 761.65
351.14 K, 4626.4 kPa, x1 = 0.7258 | 762.11
351.14 K, 5075.9 kPa, x1 = 0.7258 | 762.61
351.14 K, 5558.5 kPa, x1 = 0.7258 | 763.09
351.14 K, 5976.2 kPa, x1 = 0.7258 | 763.59
351.14 K, 6439.8 kPa, x1 = 0.7258 | 764.08
351.14 K, 6882.2 kPa, x1 = 0.7258 | 764.57
351.14 K, 7348.6 kPa, x1 = 0.7258 | 765.1
351.14 K, 7809.3 kPa, x1 = 0.7258 | 765.6
351.14 K, 8254 kPa, x1 = 0.7258 | 766.09
351.14 K, 8720.2 kPa, x1 = 0.7258 | 766.63
351.14 K, 9221.3 kPa, x1 = 0.7258 | 767.15
351.14 K, 9714.8 kPa, x1 = 0.7258 | 767.73
351.14 K, 10240 kPa, x1 = 0.7258 | 768.31
